Experimental findings from patent publication US20090170934A1, “MANUFACTURING PROCESS FOR NO-DONATING COMPOUNDS SUCH AS NO-DONATING DICLOFENAC” (NICOX SA, priority 2002, published 2009) are described below.

In general, melting point refers to the temperature, or range, at which the solid turns liquid.

Each structure is given as a SMILES string.

`O=C(Cc1ccccc1Nc1c(Cl)cccc1Cl)OCCOCCO[N+](=O)[O-]` [Compound IVa, 2-[2-(nitrooxy)ethoxy]ethyl {2-[(2,6-dichlorophenyl)amino]phenyl}acetate] came in with a melting point of 73 °C.
